Results reported in ChEMBL document CHEMBL1641373, “Trishomocubane as a scaffold for the development of selective dopamine transporter (DAT) ligands” (Bioorg Med Chem Lett, 2011).
pIC50, pKi: −log10 of the molar value.

What was measured:
[1] = target: Sodium-dependent dopamine transporter (Homo sapiens, UniProt Q01959); assay: Inhibition of DAT
[2] = target: Sodium-dependent noradrenaline transporter (Homo sapiens, UniProt P23975); assay: Inhibition of NET
[3] = target: Sodium-dependent serotonin transporter (Homo sapiens, UniProt P31645); assay: Inhibition of SERT
Sodium-dependent serotonin transporter, sequence (P31645 whole entry): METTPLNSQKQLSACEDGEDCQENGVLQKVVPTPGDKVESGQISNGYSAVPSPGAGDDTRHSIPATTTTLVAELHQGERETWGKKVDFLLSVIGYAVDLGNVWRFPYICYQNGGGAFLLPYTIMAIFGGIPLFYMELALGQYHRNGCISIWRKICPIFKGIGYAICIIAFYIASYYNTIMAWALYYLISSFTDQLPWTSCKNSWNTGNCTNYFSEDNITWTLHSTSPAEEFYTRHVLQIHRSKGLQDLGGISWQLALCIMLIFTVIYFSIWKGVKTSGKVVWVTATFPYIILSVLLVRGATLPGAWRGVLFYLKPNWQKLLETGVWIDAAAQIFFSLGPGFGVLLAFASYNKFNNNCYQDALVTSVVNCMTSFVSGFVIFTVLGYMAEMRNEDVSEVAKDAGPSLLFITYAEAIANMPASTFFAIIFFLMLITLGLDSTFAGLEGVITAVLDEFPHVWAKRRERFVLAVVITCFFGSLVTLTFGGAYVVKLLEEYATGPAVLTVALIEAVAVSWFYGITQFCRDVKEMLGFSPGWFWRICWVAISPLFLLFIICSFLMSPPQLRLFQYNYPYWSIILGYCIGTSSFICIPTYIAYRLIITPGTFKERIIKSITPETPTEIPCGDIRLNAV

Sodium-dependent noradrenaline transporter, sequence (P23975 whole entry): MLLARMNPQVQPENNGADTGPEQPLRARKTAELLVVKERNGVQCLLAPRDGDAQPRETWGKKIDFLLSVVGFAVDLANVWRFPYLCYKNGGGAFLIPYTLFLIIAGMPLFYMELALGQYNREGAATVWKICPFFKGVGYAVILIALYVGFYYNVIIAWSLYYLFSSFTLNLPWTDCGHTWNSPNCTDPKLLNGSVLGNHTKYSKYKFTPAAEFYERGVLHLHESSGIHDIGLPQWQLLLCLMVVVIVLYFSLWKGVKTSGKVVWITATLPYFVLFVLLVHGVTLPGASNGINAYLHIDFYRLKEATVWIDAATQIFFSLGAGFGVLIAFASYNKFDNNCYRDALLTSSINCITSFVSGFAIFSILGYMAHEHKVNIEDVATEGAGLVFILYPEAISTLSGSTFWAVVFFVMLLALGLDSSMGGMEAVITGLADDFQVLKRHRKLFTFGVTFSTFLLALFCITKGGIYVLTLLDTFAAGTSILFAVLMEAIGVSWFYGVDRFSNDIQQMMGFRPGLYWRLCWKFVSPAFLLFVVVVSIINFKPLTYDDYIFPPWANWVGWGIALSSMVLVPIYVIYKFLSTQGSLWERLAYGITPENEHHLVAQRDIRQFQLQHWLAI
Sodium-dependent dopamine transporter, sequence (Q01959 whole entry): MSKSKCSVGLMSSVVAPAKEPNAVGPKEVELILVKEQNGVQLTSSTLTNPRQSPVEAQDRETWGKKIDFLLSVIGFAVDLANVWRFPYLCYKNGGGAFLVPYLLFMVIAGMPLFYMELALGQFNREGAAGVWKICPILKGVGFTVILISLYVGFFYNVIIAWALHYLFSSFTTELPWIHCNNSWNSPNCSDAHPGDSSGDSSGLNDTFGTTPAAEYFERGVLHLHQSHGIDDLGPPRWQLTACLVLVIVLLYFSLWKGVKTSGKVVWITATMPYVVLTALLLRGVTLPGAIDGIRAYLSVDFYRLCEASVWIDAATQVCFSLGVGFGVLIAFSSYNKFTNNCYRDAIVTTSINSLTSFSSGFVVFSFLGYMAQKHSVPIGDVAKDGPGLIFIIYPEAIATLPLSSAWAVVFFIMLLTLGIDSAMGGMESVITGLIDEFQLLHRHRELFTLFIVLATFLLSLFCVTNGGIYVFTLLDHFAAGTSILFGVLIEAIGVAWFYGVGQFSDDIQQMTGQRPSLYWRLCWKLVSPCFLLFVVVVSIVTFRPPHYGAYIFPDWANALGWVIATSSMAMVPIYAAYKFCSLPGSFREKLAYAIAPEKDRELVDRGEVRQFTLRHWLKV

| Compound | pKi [1] | pIC50 [1] | pIC50 [2] | pIC50 [3] | pKi [2] | pKi [3] |
| --- | --- | --- | --- | --- | --- | --- |
| CCCCC1=C(c2ccc(Cl)cc2)C2CCN1CC2 | 7.85 |  |  |  |  |  |
| COC(=O)[C@@H]1C2CCC(C[C@@H]1c1ccc(C)cc1)N2C/C=C/CF (some centres undefined) |  | 8.62 | < 6.00 | < 6.00 |  |  |
| NCCN1[C@@H]2CC[C@H]1C[C@@H](NC(c1ccc(F)cc1)c1ccc(F)cc1)C2 | 7.90 |  |  |  |  |  |
| CN(C)C[C@H]1C2CCC(CC2)[C@H]1c1ccc(Cl)c(Cl)c1 | 8.14 |  |  |  | 7.36 | 7.24 |
| CN1[C@H]2CC[C@@H]1[C@@H](C(=O)N1CCCC1)[C@@H](c1ccc(I)cc1)C2 |  | 9.43 | 5.76 | 6.00 |  |  |
| COC(=O)[C@H]1[C@@H](c2ccc(C)cc2)C[C@H]2CC[C@@H]1N2C/C=C/I | 7.77 |  |  |  | < 6.00 | 6.30 |
